Laboratory results: patent publication EP0934745B1, “Use of androsterone derivatives for inhibiting DNA binding of ap-1 and airway smooth muscle proliferation” (CHARLOTTE-MECKLENBURG HOSPITAL doing business as Carolinas …, priority 1998, dated 1999)
pIC50: −log10 of the molar value.

Tested on: rat tracheal smooth muscle
Experiment: Proliferation of cultured airway smooth muscle (MTT reduction, cell counts)
Assay type: cell-based
Details: for growth inhibition by direct visual count of stained cells: 10% FBS, 15,000 cells/well cultured for 24 hours (Figure 4A); for inhibition of FBS-induced cell proliferation (comparison in words): 10% FBS, 15,000 cells/well, 92-96 hours, MTT (Figures 3A, 3C)
Procedure: Polyclonal horseradish peroxidase anti-rabbit IgG was from Transduction Laboratories (Lexington, KY). M-MLV reverse transcriptase was from Life Technologies (Gaithersburg, MD). All other materials were obtained from Sigma unless specified. Measurement of Cultured Airway Smooth Muscle Proliferation. Rat tracheal smooth muscle was cultured by euthanizing rats with pentobarbital overdose and removal of their tracheas. The posterior tracheal membrane was isolated, minced and digested twice for 30 minutes at 37°C. in HBSS containing 0.2% type IV collagenase and 0.05% type IV elastase. Each enzyme digest was collected and centrifuged for 5 minutes at 500 g at room temperature. The supernatant was removed and the pellet was resuspended in DMEM supplemented with 10% FBS, nonessential amino acids, penicillin (100 U/ml), streptomycin (100 µg/ml) and amphotericin (250 ng/ml). Cells were seeded in this medium into 25-cm^2 flasks at 2 x 10^5 cells per flask and incubated in a humidified atmosphere of 5% CO2/95% air at 37°C. Upon reaching confluence, cells were detached with 0.25% trypsin-0.002% EDTA solution for passage.
Proliferation of cultured airway smooth muscle was quantitated using modification of a previously reported colorimetric method based upon metabolic reduction of the soluble yellow tetrazolium dye 3-[4,5-dimethylthiazol]-2yl-2,5-diphenyl tetrazolium bromide (MTT) to its insoluble purple formazan by the action of mitochondrial succinyl dehydrogenase. See Hirst, S.J., Barnes, P.J., and Twort, C.H.C., "Quantifying proliferation of cultured human and rabbit airway smooth muscle in response to serum and platelet derived growth factor," Am. J. Respir. Cell Mol. Biol., 7, 574-581 (1992). This assay empirically distinguishes between dead and living cells. For proliferation studies, cells were seeded into 24-well uncoated plastic plates at 15,000-50,000 cells per well and cultured with DMEM and mitogens. After 24-96 hours the medium was replaced with 1 ml/well fresh DMEM containing 100 µg/ml MTT and 0.5% FBS, and plates were incubated an additional hour MTT-containing medium was removed, cells were washed twice with 1 ml of sterile Dulbecco's modified phosphate buffered saline without Ca^2+ or Mg^2+ (DPBS), 0.5 ml dimethylsulfoxide (DMSO) was added to each well, and the absorbance of the solubilized purple formazan dye was measured at 540 nm on a Shimadzu UV160U spectrophotometer. A total of 4-6 wells was studied at each treatment condition.
The optimum concentration of FBS for use as a mitogenic stimulus was determined by incubating 15,000 cells per well with DMEM containing 0.25, 1.0, 5.0 or 10.0% FBS and MTT reduction was determined after 24, 48, 72 or 96 hours. […] After 24 hours, cells were washed twice with DPBS, fixed and permeabilized by two sequential 5 minute exposures to ice-cold methanol, stained with Giemsa-modified Wright's stain for 3 minutes and washed with DPBS. Cell counts were performed on 10 random fields at 40 power using a 0.01-cm^2 ocular grid. Cell Culture Treatments for Measurement of Airway Smooth Muscle Proliferation. The effect of dehydroepiandrosterone (DHEA) and 16α-bromoepiandrosterone (16α-BrEA) on cellular proliferation was studied in cultures stimulated with 0.5-10% FBS or 1-50 ng/ml recombinant human platelet derived growth factor (PDGF-AA). […] See, for example, the method of Le, Y. Y. , and Xu, R.B., "The molecular mechanism of the action of the pharmacological doses of glucocorticoids. Studies on the low-affinity glucocorticoid receptor," Receptor, 5, 63-69 (1995).

Row | SMILES | cell proliferation stimulated by PDGF (50 ng/ml PDGF, 50,000 cells/well cultured for 72 hours, MTT (Figure 3B)) | growth inhibition by direct visual count of stained cells | inhibition of FBS-induced cell proliferation (comparison in words) | pIC50 (Rattus norvegicus, 48 h, read-out: 50% inhibitory concentration)
1 | C[C@]12CC[C@H](O)CC1=CC[C@@H]1[C@@H]2CC[C@]2(C)C(=O)CC[C@@H]12 [DHEA, dehydroepiandrosterone] | inhibites cell proliferation | confirmed by cell counts | more active than DHEA-sulfate at high concentrations | –
2 | C[C@]12CC[C@H](O)C[C@@H]1CC[C@@H]1[C@@H]2CC[C@]2(C)C(=O)[C@H](Br)C[C@@H]12 [16α-BrEA, 16α-bromoepiandrosterone] | – | confirmed by cell counts | even more potent inhibitor of FBS-induced cell proliferation than DHEA | 5.12
